The target in data set [1] is T1, PfATC (Plasmodium falciparum, UniProt A0A5K1K910). The data set can be described thus: Differential scanning fluorimetry (DSF). Conditions: PfATC 5 µM, read-out: ΔTM of PfATC (thermal stabilization). Format: binding. An excerpt:
(§1) 464Data collection, processing and refinement. All the diffraction data sets were collected using
(§2) 465synchrotron radiation wavelength 1.033200 Å at DESY beamline P11. The data collected for
(§3) 466PfATC crystals grown in presence of fragments and compounds were processed using XDSAPP 25
(§4) 467and Aimless 26, and the structures were solved and initially refined using the DIMPLE pipeline
(§5) 468within CCP4 suite 26 with coordinates of the unliganded PfATC (5ILQ) as a starting model. The
(§6) 469final refinement included manual rebuilding in coot 27 and Refmac5 28. The resulting crystal
(§7) 470structures were deposited in PDB 29. Data collection and processing statistics are show in Table
(§8) 472Differential Scanning Fluorimetry (DSF). The purified PfATC was incubate with 5000 × Sypro
(§9) 473Orange (Invitrogen) and dilution it to 1:400 stock of dye in assay buffer (50 mM Tris-HCl pH =8.0
(§10) 474and 300 mM NaCl). Each reaction consisted of 2 µL compound (10 mM stock in 100% DMSO), 5
(§11) 475µL PfATC-Sypro orange mixture and 43 µL assay buffer. Final protein assay concentration was
(§12) 4765µM, final DMSO concentration war […]. After incubation for 20 min at 20 ℃, the samples
(§13) 477were hated from 25℃ to 95℃ at a rate of 0.5 ℃ min -1. The inflection points of the melting curves
(§14) 478were determined using BioRad CSV 96 control software and processed & plotted by GraphPad.
(§15) 479Microscale Thermophoresis (MST). […]
Background: DSF heats the sample and reads unfolding from a dye or from intrinsic fluorescence.

Data set [2] deals with T1, PfATC. The data set can be described thus: Microscale thermophoresis (MST). Format: binding. To be noted: n = 3.
Source text: as §1, §2, §3, §4, §5, §6, §7, §8, §9, §10, §11, §12, §13, §14, §15
On the technique in general: MST reads how a fluorescent partner responds to local heating, with and without ligand.

A short description of data set [3]: Insolubility interpreted from deviation of the MST curve. Format: physicochemical. To be noted: pH 8, aqueous with cosolvent or surfactant or cyclodextrin, kinetic from dmso stock, MST buffer, read-out: concentration in excess of which the compound is insoluble. On the procedure: We also modified the amino group and generated a new scaffold, suspecting that varying the R1, R2, and R3 groups would generate a series of compounds with optimized binding and improved inhibition (BDAs, Supporting Information Table 1). We evaluated the BDA series in an in vitro activity assay against malarial and human ATC (Figure 3A, Supporting Information Table 1). […] Significant deviations from the sigmoidal distribution of the MST curve are present at concentrations higher than 10 μM, which we have interpreted as indicative of BDA-04 insolubility at concentration in excess of 10 μM. To characterize the mechanism of inhibition by BDAs, enzyme activity assays were performed using BDA-04 as an exemplar (Figure 3F,G).
as §1, §2, §3, §4, §5
469final refinement included manual rebuilding in coot 27 and Refmac5 28. The resulting crystal […]
478were determined using BioRad CSV 96 control software and processed & plotted by GraphPad. […]

T1 sequence (A0A5K1K910 entry or part of it): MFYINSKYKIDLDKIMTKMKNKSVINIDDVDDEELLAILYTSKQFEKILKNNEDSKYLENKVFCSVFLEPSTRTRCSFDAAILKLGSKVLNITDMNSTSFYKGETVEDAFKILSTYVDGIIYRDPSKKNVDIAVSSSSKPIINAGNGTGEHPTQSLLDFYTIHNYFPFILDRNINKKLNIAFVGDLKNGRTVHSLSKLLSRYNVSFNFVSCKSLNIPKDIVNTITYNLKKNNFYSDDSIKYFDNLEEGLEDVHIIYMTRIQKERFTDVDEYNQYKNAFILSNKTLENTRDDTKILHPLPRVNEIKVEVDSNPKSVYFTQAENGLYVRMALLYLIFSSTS

In general, ΔTm refers to the change in melting temperature against a reference sample. As usually defined, the Kd is a measure of binding affinity in units of concentration. Read a high Kd as weaker binding. Regarding `CC(C)(C)OC(=O)Nc1sc(-c2ccccc2)cc1C(=O)NCCc1ccccc1` [BDA-04], the ΔTm in data set [1] stood at 22.8 °C. Moreover, the Kd in data set [2] was 66.3 nM. In data set [3], the solubility at 10 min was above 10 µM.

The values are drawn from PMC9585585, “Discovery of Small-Molecule Allosteric Inhibitors of PfATC as Antimalarials” (Journal of the American Chemical Society, 2022).
